Tests used:
[1] = test system: wild-type cotyledons in Arabidopsis
Experimental: A salt tolerance screen is performed to identify and isolate gene(s) that confer salt (NaCl) tolerance in Arabidopsis.
A primary screen is conducted with T1 plants, using a germination assay. T1 seed is plated evenly in media supplemented with 250 mM NaCl. For negative and positive controls, wild type (Col-O) seed is plated in plates with and without, respectively, the supplemental NaCl. Plates are incubated for two days at 4° C., then transferred to a growth room and incubated an additional 7 to 14 days.
Salt tolerant germination is classified in five stages: 1) imbibation, emergence of radicle; 2) expansion and greening of cotyledons; 3) elongation of the hypocotyl; 4) elongation of the root and formation of root hairs; 5) development of true leaves.

[2] = test system: wild type (Col-0) Arabidopsis; assay: Copper tolerance germination assay; type: in vivo
Experimental: A screen for copper tolerance was developed in order to identify and isolate gene(s) whose altered expression confers copper tolerance and allows normal plant growth and development in the presence of an inhibitory level of copper. It has been experimentally determined that the lowest completely inhibitory concentration (LCI) of copper is 160 μM for hypocotyl and cotyledon expansion and the development of true leaves in wild type (Col-0) Arabidopsis.
For the primary screen, pooled T2 lines are plated on media supplemented with 160 μM CuSO4. Controls include wild type (Col-0 cand Shadara) plants germinating on plates with no copper and copper at the Col-0 LCI for germination. Plates are incubated 3 days at 4° C., then transferred to the growth room and incubated an additional 10 days.
Copper sensitivity is evaluated with germination assays, which are performed as described above for salt resistance screens.

SMILES: [Cl-].[Na+] [NaCl]
- concentration that completely abolishes expansion and green pigmentation of cotyledons [1]: greater than 250 mM

SMILES: O=S(=O)([O-])[O-].[Cu+2] [copper, CuSO4]
- concentration at which negative gravitropism of the hypocotyl is completely inhibited [2]: 50 µM
- concentration at which root elongation is inhibited [2]: 100 µM
- lowest completely inhibitory concentration (LCI) ([2]; hypocotyl and cotyledon expansion and development of true leaves): 160 µM
